Laboratory results as given in the COVID Moonshot data (paper PMC11187573), “Identification of SARS-CoV-2 Mpro inhibitors through deep reinforcement learning for de novo drug design and computational chemistry approaches” (RSC Medicinal Chemistry, 2024).

Legend:
[1] = target: SARS-CoV-2 Main Protease (SARS-CoV-2) (UniProt P0DTD1)
Description: Briefly, compounds were seeded into assay-ready plates (Greiner 384PP, cat# 781280) using an ECHO 650T dispenser and DMSO was back-filled for a uniform concentration in assay plates (DMSO concentration < 1%, final volume = 500 nL.). […] After a quick centrifugation step (1000 rpm, 15 s) the plate is incubated for 15 min at room temperature. […] After centrifugation (1000 rpm, 14 s) the reaction is incubated for 10 min (11-mer) or 5 min (37-mer) at room temperature before quenching with 10 % formic acid. The reactions are analysed with MS using RapidFire (RF) 365 high-throughput sampling robot (Agilent) connected to an iFunnel Agilent 6550 accurate mass quadrupole time-of-flight (Q-TOF) mass spectrometer using electrospray. […] Dose response curves uses an 11-point range of 100--0.0017 µM inhibitor concentrations. RapidFire integrator software (Agilent) was used to extract the charged states from the total ion chromatogram data followed by peak integration. For the 11-mer peptide the m/z (+1) charge states of both the substrate (1191.67 Da) and cleaved N-terminal product TSAVLQ (617.34 Da) were used and the 37-mer peptide the m/z (+2) charge states of the substrate (3960.94 Da) and m/z (+1) of the cleaved C-terminal product [sequence] (1125.57 Da). Percentage conversion (product peak integral / (product peak integral + substrate peak integral))*100) and percentage inhibitions were calculated and normalised against DMSO control with deduction of any background signal in Microsoft Excel. IC50s were calculated using Levenberg–Marquardt algorithm used to fit a restrained Hill equation to the dose-response data with both GraphPad PRISM and CDD.

[2] = target: SARS-CoV-2 Main Protease (SARS-CoV-2) (UniProt P0DTD1); remark: listed apart in the source

| Structure (SMILES) | IC50 [1] [µM] | IC50 [2] [µM] | inhibition ([1]; 50.0 µM) [%] | inhibition ([2]; 20.0 µM) [%] | inhibition ([2]; 50.0 µM) [%] | inhibition ([1]; 20.0 µM) [%] |
| --- | --- | --- | --- | --- | --- | --- |
| COC(=O)c1ccc(-c2cc(Cl)cc(CC(=O)Nc3cnccc3C)c2)c(OC)c1 | 12 | 12.7 | – | – | – | – |
| O=C1Nc2cc(N3CCCC3)ccc2C1=O | – | – | 0 | 7.46 | 37.3 | – |
| NCCn1cc(C(=O)N2CC3(CCC3)c3cc(Br)ccc32)cn1 | – | – | 0 | -2.84 | 7.52 | – |
| C=CC(=O)NCC(=O)N(Cc1ccccc1)C[C@H](O)c1ccccc1 (stereo in doubt) | – | – | 0 | -0.281 | 0.986 | – |
| CS(=O)(=O)N1CCc2ccc(CN3CCN(C(=O)CCl)CC3)cc2C1 | 38.4 | – | 71.8 | 29.9 | 62.5 | – |
| CC(C)C[C@H](NC(=O)OCc1ccccc1)C(=O)N[C@H](C(=O)NCC(=O)C=[N+]=[N-])C(C)C (stereo in doubt) | – | – | 15.3 | – | 11.5 | – |
| O=C(O)[C@@H](c1ccccc1)N1Cc2ccccc2C1=O (stereo in doubt) | 1.16 | – | – | 96.3 | 99.4 | – |
| COc1ccccc1OCCNC(=O)c1cc(=O)[nH]c2cccc(C)c12 | 2.6 | – | 89.7 | 91.8 | 96.4 | – |
| Cc1ncccc1NC(=O)Cc1cccc(Cl)c1 | – | – | 0 | -4.59 | -3.9 | – |
| O=S(=O)(Nc1ccccc1SCc1cccc(Cl)c1F)c1cc(Cl)sc1Cl | 1.92 | – | – | 90.3 | 81.3 | – |
| Cc1cc(S(=O)(=O)c2c([N+](=O)[O-])cc(C(F)(F)F)cc2[N+](=O)[O-])c(Cl)cc1Cl | – | – | 34.8 | – | 9.61 | – |
| CCCCN(CCCNC(=O)Nc1cn(CC(C)C)c(=O)c2ccccc12)c1ccccc1 | 82.7 | – | – | -4.26 | -3.25 | – |
| C=CC(=O)N(c1ccc(C(F)(F)F)cc1)C(C(=O)Nc1ccc(OC)cc1)c1cccnc1 (centres undefined) | – | – | – | 40.3 | 60.7 | 60 |
| COc1cccc(CNC(=O)N2CCN(C(=O)N3CCCCC3)CC2)c1 | – | – | 0 | -3.31 | -0.332 | – |
| C=CC(=O)N(c1ccc2c(c1)C=CCCC2)C(C(=O)NC(C)(C)C)c1cccnc1 (centres undefined) | – | – | 0 | 12.4 | 25.9 | – |
| COc1ccc2c(c1F)NC(=O)C2=O | – | – | 7.79 | -1.15 | 3.02 | – |
| O=C1C(=O)N(Cc2ncon2)c2ccc(Br)cc21 | 3.79 | – | 94.1 | -1.88 | -2.4 | – |
| Cc1cc(Cl)cc(CC2CCN(C(=O)CCl)CC2)c1 | 1.24 | – | 100 | 95.1 | 98.3 | – |
| CC(C)(C)c1ccc(-c2nnc(Sc3cnc([N+](=O)[O-])s3)o2)cc1 | 0.164 | 4.16 | – | 8.3 | 69.9 | – |
| CNCCN(C)C(=O)C(=O)N1Cc2ccccc2C(c2ccccc2)C1 (centres undefined) | – | – | 0 | -1.83 | -2.83 | – |
| O=C(Nc1ccc([N+](=O)[O-])cc1Cl)c1cc(Cl)ccc1O | – | – | 21 | – | -22.8 | – |
| CCN(Cc1cccc(-c2ccncc2)c1)C(=O)Cn1nnc2ccccc21 | – | – | 0 | 3.37 | 15.6 | – |
| CC(C)Cn1cc(NC(=O)NCCc2ccc(Cl)cc2)c2ccccc2c1=O | 95.9 | – | – | 22.5 | -1.58 | – |
| CC(=O)N1CCN(CC(=O)Nc2cncc3ccccc23)CC1 | 72.5 | 71.7 | 42.4 | – | – | – |

| Structure (SMILES) | IC50 [1] [µM] | IC50 [2] [µM] | inhibition ([1]; 50.0 µM) [%] | inhibition ([2]; 20.0 µM) [%] | inhibition ([2]; 50.0 µM) [%] | inhibition ([1]; 20.0 µM) [%] |
| --- | --- | --- | --- | --- | --- | --- |
| Cc1cn2c(-c3cccnc3)c(-c3ccc(F)cc3)nc2s1 | – | – | 31.5 | -2.02 | 1.34 | – |
| COc1cc(OC)cc(Oc2cccc(CNC(=O)Cn3nnc4ccccc43)c2)c1 | – | – | 0 | -3.39 | 0.116 | – |
| Cc1nnc(NC(=O)C2COc3ccc(Cl)cc32)n1C1CC1 (centres undefined) | – | – | 0 | -63.2 | -2.41 | – |
| O=C(C(F)Cl)N1CCN(Cc2cccc3ccccc23)CC1 (centres undefined) | – | – | 9.11 | 20.5 | 29.5 | – |
| CS(=O)(=O)c1ccc(N2CCNCC2)cc1 | 83.8 | – | – | -2.52 | 5.05 | – |
| Cc1cccc(COC(=O)c2cccc3c2NC(=O)C3=O)c1 | 17.3 | – | 83.7 | -1.1 | 0.0384 | – |
| Cn1cc(NC(=O)Nc2ccccn2)c2ccccc2c1=O | – | – | 0 | -2.17 | -0.727 | – |
| COc1ccc(Cl)cc1N1CCN(Cc2cc(=O)[nH]c3ccccc23)C1=O | – | – | 0 | -1.82 | 4.69 | – |
| CCOc1ccccc1OC1CCN(C(=O)c2c(C)c(=O)[nH]c3ccccc23)C1 (centres undefined) | – | – | 0 | 0.342 | 4.57 | – |
| C/C(O)=C(\C#N)C(=O)Nc1ccc(C(F)(F)F)cc1 | – | – | 22.2 | -2.89 | -3 | – |
| CCOc1ccccc1CN1C(=O)C(=O)c2cc(Br)ccc21 | 12.4 | – | 72.2 | 0.566 | 3.64 | – |
| COc1ccccc1OC1CCCN(C(=O)c2c(C)c(=O)[nH]c3ccccc23)C1 (centres undefined) | – | – | 0 | -2.54 | -1.13 | – |
| C=CC(=O)N1CCN(Cc2ccc(F)cc2)CC1 | – | – | 0 | 7.92 | 11.4 | – |
| O=C(CCl)N1CCN(Cc2cc(O)cc(Cl)c2)CC1 | 1.57 | – | 98.9 | 75 | 89.5 | 92.7 |
| O=[N+]([O-])c1cnc(Sc2nnc(-c3ccc(Cl)cc3)o2)s1 | 0.319 | – | – | 28.9 | 71.2 | – |
| C=CC(=O)N(C(C)COc1cccc(F)c1)C(C(=O)NC(C)(C)C)c1cccnc1 (centres undefined) | – | – | 0 | -1.52 | -5.54 | – |
| C=CC(=O)N(C1CC(C)OC1=O)C(C(=O)NC(C)(C)C)c1cccnc1 (centres undefined) | – | – | 0 | -2.18 | 1.34 | – |
| COc1ccc(-c2cc(COc3cc(Cl)cc(CC(=O)Nc4cnccc4C)c3)on2)cc1 | 13.8 | 71.5 | 67.3 | – | – | – |
| O=C1CC(Oc2cc(Cl)cc(N(CCC3CCCCC3)C(=O)Nc3cncc4ccccc34)c2)N1 (centres undefined) | 1.58 | 0.105 | – | – | – | – |
| Cc1nc[nH]c1CN1CCN(Cc2cccc(Cl)c2)C1=O | – | – | 0 | -0.267 | 2.39 | – |
| CCOC(=O)c1ccc(NC(=O)CC2SC(=O)N(c3ccccc3)C2=O)cc1 (centres undefined) | 0.635 | – | – | 79 | 80.7 | – |
| COC(=O)c1c(C)nn(C(=O)c2cccs2)c1-c1snnc1C | 0.522 | – | – | 35 | 77 | – |
| Nc1ncc(S(=O)(=O)c2ccc(Cl)cc2)c(N)n1 | – | – | 0 | – | -22.1 | – |
| CN1CCN(C(=O)Cc2c[nH]c3ncc(C(=O)NCCc4c[nH]c5ccc(F)cc45)cc23)CC1 | – | – | 8.74 | -1.5 | 7.57 | – |

| Structure (SMILES) | IC50 [1] [µM] | IC50 [2] [µM] | inhibition ([1]; 50.0 µM) [%] | inhibition ([2]; 20.0 µM) [%] | inhibition ([2]; 50.0 µM) [%] | inhibition ([1]; 20.0 µM) [%] |
| --- | --- | --- | --- | --- | --- | --- |
| CCc1cccc(CC)c1NC(=O)CN1C(=O)C(=O)c2cc(OC)ccc21 | – | – | 13 | -6.58 | -0.841 | – |
| C[C@@H]1CS/C(=N\NC(=O)C(=O)C(NC(=O)C2CCCCCC2)C2CCOCC2)N1C (stereo in doubt) | – | – | 21 | – | 2.64 | – |
| Cc1cnc2c(-c3ccc4[nH]ncc4c3)c(-c3ccc(F)cc3)nn2c1 | – | – | 34.7 | -1.68 | -1 | – |
| COC(=O)c1c(C)n(S(C)(=O)=O)c2ccc(N(C(=O)c3ccco3)S(C)(=O)=O)cc12 | 0.335 | – | – | 47.7 | 97.8 | – |
| O=C(NCc1ccc2c(c1)OCO2)c1nc(S(=O)(=O)Cc2ccccc2)ncc1Cl | 0.509 | – | – | 98.5 | 99.8 | – |
| Cc1nc(N)sc1CN1CCN(Cc2cccc(Cl)c2)C1=O | – | – | 0 | 5.38 | 35.6 | – |
| O=S(=O)(Cc1nc(-c2ccncc2)no1)Nc1ccc(N2CCCCC2)cc1 | – | – | 0 | 3.34 | 2.66 | – |
| COc1ccc(CN2C(=O)C(=O)c3cc(Br)cc(C)c32)cc1OC | 1.23 | – | 99.3 | -2.84 | 0.559 | – |
| COc1cc(Cl)cc(CC(=O)Nc2cnccc2C)c1 | 43.6 | – | – | 24.6 | 48.3 | – |
| N#Cc1ccc(CN2C(=O)C(=O)c3cccc(Br)c32)c(F)c1 | 14.3 | – | 72.1 | -1.68 | -0.391 | – |
| N#C/C(C(=O)Nc1ccc(F)cc1)=C(/O)c1ccc(Cl)cc1 | 0.234 | – | 100 | – | 22.2 | – |
| Nc1cncc2c1CCCN2C(=O)Cc1cccc(Cl)c1 | 54.2 | 32.5 | – | – | – | – |
| CC(C)c1nc(CN(C)C(=O)N[C@H](C(=O)N[C@@H](Cc2ccccc2)C[C@H](O)[C@H](Cc2ccccc2)NC(=O)OCc2cncs2)C(C)C)cs1 (stereo in doubt) | – | – | – | 2.31 | 6.72 | 0 |
| Cc1cc(C)nc(NC2CCN(C(=O)CCl)CC2)n1 | 19.5 | – | 100 | 46.1 | 81.5 | – |
| N#Cc1ccc(CN2CCC(C3CCNC3)CC2)cc1 (centres undefined) | 1.36 | – | – | 97.1 | 98.9 | – |
| CC(=O)/C(C#N)=C(\O)Nc1ccc(C(F)(F)F)cc1 | – | – | 22.2 | -2.89 | -3 | – |
| Cc1cccc(C)c1NC(=O)CN1C(=O)C(=O)c2ccccc21 | – | – | 0 | -5.56 | -2.09 | – |
| CNC(=O)c1ccc(CS(=O)(=O)NCC(F)(F)c2ccc(F)cc2F)cc1 | – | – | 0 | 6.87 | 9.79 | – |
| CCC(=O)Nc1ccc(N(Cc2ccsc2)C(=O)Cn2nnc3ccccc32)cc1 | – | – | 78.1 | 79.7 | 89.3 | – |
| c1ccc(-c2cc(Sc3nnc(-c4cccs4)o3)n3ncnc3n2)cc1 | 0.152 | – | – | 47.1 | 96.7 | – |
| CC(=O)Oc1ccccc1C(=O)Nc1ncc([N+](=O)[O-])s1 | – | – | 0 | – | -8.72 | – |
| O=C(Cc1cc(Cl)cc2c1OCC2)Nc1cncc2ccccc12 | 0.492 | 1.45 | 78.3 | – | – | – |
| CN(CCC(N)=O)C(=O)C(=O)N1Cc2ccccc2C(c2ccccc2)C1 (centres undefined) | – | – | 0 | -0.756 | -0.803 | – |
| C=CC(=O)N1CC(NCc2c[nH]c3ccc(C#N)cc23)C1 | – | – | 0 | -2.15 | 15.4 | – |
